26 compounds from patent US20240228488A1 (TAKEDA PHARMACEUTICAL COMPANY LIMITED, priority 2021, published 2024) can be followed below.

Bounds are passed on as bounds.

Sequence of human activated kallikrein enzyme (P03952 391-638 limits assumed): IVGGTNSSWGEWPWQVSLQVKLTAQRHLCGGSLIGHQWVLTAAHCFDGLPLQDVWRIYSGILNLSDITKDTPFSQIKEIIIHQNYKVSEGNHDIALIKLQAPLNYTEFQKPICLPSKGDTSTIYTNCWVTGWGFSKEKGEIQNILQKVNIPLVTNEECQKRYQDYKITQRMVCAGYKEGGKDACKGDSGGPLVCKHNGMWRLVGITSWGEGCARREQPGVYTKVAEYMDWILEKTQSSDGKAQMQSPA
Sequence of human activated kallikrein enzyme (P03952 20-390 partner limits assumed): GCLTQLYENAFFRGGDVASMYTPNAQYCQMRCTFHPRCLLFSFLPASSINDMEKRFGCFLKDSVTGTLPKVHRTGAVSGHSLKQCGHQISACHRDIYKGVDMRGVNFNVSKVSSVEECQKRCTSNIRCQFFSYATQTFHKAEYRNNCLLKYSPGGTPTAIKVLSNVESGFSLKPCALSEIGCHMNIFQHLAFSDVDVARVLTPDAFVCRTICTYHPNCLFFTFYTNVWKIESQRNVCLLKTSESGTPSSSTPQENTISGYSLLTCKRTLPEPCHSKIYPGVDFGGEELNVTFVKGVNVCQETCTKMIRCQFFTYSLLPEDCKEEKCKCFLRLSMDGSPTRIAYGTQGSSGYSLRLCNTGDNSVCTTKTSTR

The target in the experiment is human activated kallikrein enzyme (Homo sapiens, UniProt P03952). As to the kind of experiment: Plasma kallikrein inhibition, fluorogenic PFR-AMC substrate, 500 pM activated kallikrein format. It is filed as biochemical. The settings on record: 500 pM activated kallikrein, 300 uM PFR-AMC, 30 min preincubation, 10 min reaction; read-out: Primary Dose Response Assay: Average EC50. The essentials:
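High-enzyme format of the fluorogenic peptide assay, with EC50 taken from AMC signal: 500 pM activated kallikrein, 300 uM Pro-Phe-Arg-AMC, 30 min compound preincubation and 10 min reaction, all at room temperature, pH 7.5.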
Turning to `CN(C)C1CCN(c2cc(C3CC3)cn3cc(CNc4cc(NC(=O)[C@H]5C[C@@H]5c5cccc(Cl)c5)ncn4)nc23)C1` (single isomer, unassigned) [Example I-14], the EC50 was 1 to 10 nM.

For the compound `CN(C)C1CCN(c2cc(C3CC3)cn3cc(CNc4cc(NC(=O)[C@H]5C[C@@H]5c5cccc(Cl)c5)ncn4)nc23)C1` (single isomer, unassigned) [Example I-15], the EC50 lay within 1 to 10 nM.

For the compound `Nc1cc(Cl)cc([C@H]2C[C@@H]2C(=O)Nc2cc(NCc3cn4cc(C5CC5)ccc4n3)ncn2)c1` (single isomer, unassigned) [Example I-257, rac-(1S*,2S*)-2-(3-amino-5-chlorophenyl)-N-(6-(((6-cyclopropylimidazo[1,2-a]pyridin-2-yl)methyl)amino)pyrimidin-4-yl)cyclopropane-1-carboxamide], the EC50 fell in the range of 1 to 10 nM.

As to `Nc1cc(Cl)cc([C@H]2C[C@@H]2C(=O)Nc2cc(NCc3cn4cc(C5CC5)ccc4n3)ncn2)c1` (single isomer, unassigned) [Example I-258, rac-(1S*,2S*)-2-(3-amino-5-chlorophenyl)-N-(6-(((6-cyclopropylimidazo[1,2-a]pyridin-2-yl)methyl)amino)pyrimidin-4-yl)cyclopropane-1-carboxamide], the EC50 fell in the range of 1000 to 6000 nM.

`Cc1ccnc([C@@H]2C[C@H]2C(=O)Nc2cc(NCc3cn4cc(C5CC5)cc(N5CC(=O)N(C)C5=O)c4n3)ncn2)n1` (single isomer, unassigned) [Example I-261]: the EC50 lay in the range of 10 to 100 nM.

For the compound `CN1C(=O)CN(c2cc(C3CC3)cn3cc(CNc4cc(NC(=O)[C@@H]5C[C@H]5c5cc(Cl)ccn5)ncn4)nc23)C1=O` (single isomer, unassigned) [Example I-263], the EC50 lay within 10 to 100 nM.

With `O=C(Nc1cc(NCc2cn3cc(C4CC4)ccc3n2)ncn1)[C@H]1C[C@@H]1c1cc(Cl)ccn1` (single isomer, unassigned) [Example I-266, rac-(1S*,2S*)-2-(4-chloropyridin-2-yl)-N-(6-(((6-cyclopropylimidazo[1,2-a]pyridin-2-yl)methyl)amino)pyrimidin-4-yl)cyclopropane-1-carboxamide], the EC50 lay within 100 to 1000 nM.

With `O=C(Nc1cc(NCc2cn3cc(C4CC4)ccc3n2)ccn1)[C@H]1C[C@@H]1c1cc(Cl)ccn1` (single isomer, unassigned) [Example I-269, rac-(1S*,2S*)-2-(4-chloropyridin-2-yl)-N-(4-(((6-cyclopropylimidazo[1,2-a]pyridin-2-yl)methyl)amino)pyridin-2-yl)cyclopropane-1-carboxamide], the EC50 lay in the range of 10 to 100 nM.

For the compound `O=C(Nc1cc(NCc2cn3cc(C4CC4)ccc3n2)ccn1)[C@@H]1C[C@]12CCc1ccc(Cl)cc12` (single isomer, unassigned) [Example I-273, rac-(1S*,2S*)-6′-chloro-N-(4-(((6-cyclopropylimidazo[1,2-a]pyridin-2-yl)methyl)amino)pyridin-2-yl)-2′,3′-dihydrospiro[cyclopropane-1,1′-indene]-2-carboxamide], the EC50 is less than 1 nM.

On to `Cc1ccnc([C@H]2C[C@@H]2C(=O)Nc2ncnc3nn(Cc4cn5cc(C6CC6)cc(N6CC(=O)N(C)C6=O)c5n4)cc23)n1` (single isomer, unassigned) [Example I-633, rac-(1S*,2S*)—N-(2-((6-cyclopropyl-8-(3-methyl-2,4-dioxoimidazolidin-1-yl)imidazo[1,2-a]pyridin-2-yl)methyl)-2H-pyrazolo[3,4-d]pyrimidin-4-yl)-2-(4-methylpyrimidin-2-yl)cyclopropane-1-carboxamide], for which the half-maximal effective concentration (EC50) fell in the range of 100 to 1000 nM.

With `Cc1ccnc([C@H]2C[C@@H]2C(=O)Nc2ncnc3nn(Cc4cn5cc(C6CC6)cc(N6CC(=O)N(C)C6=O)c5n4)cc23)n1` (single isomer, unassigned) [Example I-634, rac-(1S*,2S*)—N-(2-((6-cyclopropyl-8-(3-methyl-2,4-dioxoimidazolidin-1-yl)imidazo[1,2-a]pyridin-2-yl)methyl)-2H-pyrazolo[3,4-d]pyrimidin-4-yl)-2-(4-methylpyrimidin-2-yl)cyclopropane-1-carboxamide], the concentration giving a half-maximal response (EC50) is less than 1 nM.

In the case of `O=C(Nc1cc(N2C[C@@H](O)C[C@@H]2c2cn3cc(C4CC4)ccc3n2)ncn1)[C@H]1C[C@@H]1c1cc(Cl)ccn1` (single isomer, unassigned; isomer 1) [Example I-248, (1S*,2S*)-2-(4-chloropyridin-2-yl)-N-(6-((2R,4S)-2-(6-cyclopropylimidazo[1,2-a]pyridin-2-yl)-4-hydroxypyrrolidin-1-yl)pyrimidin-4-yl)cyclopropane-1-carboxamide, isomer 1], the concentration giving a half-maximal response (EC50) fell in the range of 1000 to 6000 nM.

Take `O=C(Nc1cc(NCc2cn3cc(C4CC4)cc(N4CCC(O)CC4)c3n2)ncn1)[C@H]1C[C@@H]1c1cccc(Cl)c1` (stereo in doubt) [Example I-3, (1S,2S)-2-(3-chlorophenyl)-N-(6-(((6-cyclopropyl-8-(4-hydroxypiperidin-1-yl)imidazo[1,2-a]pyridin-2-yl)methyl)amino)pyrimidin-4-yl)cyclopropane-1-carboxamide]: the EC50 was in the range of 1 to 10 nM.

For `Cc1ccnc([C@H]2C[C@@H]2C(=O)Nc2cc(OC(C)c3cn4cc(C5CC5)cc(N5CC(=O)N(C)C5=O)c4n3)c(C)nn2)n1` (stereo partly drawn) [Example 35, (1S,2S)-N-(5-(1-(6-cyclopropyl-8-(3-methyl-2,4-dioxoimidazolidin-1-yl)imidazo[1,2-α]pyridin-2-yl)ethoxy)-6-methylpyridazin-3-yl)-2-(4-methylpyrimidin-2-yl)cyclopropane-1-carboxamide], the EC50 was less than 1 nM.

Consider `Cc1cc(N2CC(=O)N(C)C2=O)c2nc(C(C)Oc3cnnc(NC(=O)[C@H]4C[C@@H]4c4nccc(C)n4)c3)cn2c1` (stereo partly drawn) [Example 36, (1S,2S)-N-(5-(1-(6-methyl-8-(3-methyl-2,4-dioxoimidazolidin-1-yl)imidazo[1,2-α]pyridin-2-yl)ethoxy)pyridazin-3-yl)-2-(4-methylpyrimidin-2-yl)cyclopropane-1-carboxamide], for which the EC50 is less than 1 nM.

`Cc1ccnc([C@H]2C[C@@H]2C(=O)Nc2cc(OC(C)c3cn4cc(C5CC5)cc(N5CCOC5=O)c4n3)cnn2)n1` (stereo partly drawn) [Example 37, (1S,2S)-N-(5-(1-(6-cyclopropyl-8-(2-oxooxazolidin-3-yl)imidazo[1,2-α]pyridin-2-yl)ethoxy)pyridazin-3-yl)-2-(4-methylpyrimidin-2-yl)cyclopropane-1-carboxamide]: the EC50 was less than 1 nM.

`COc1cc(NC(=O)[C@H]2C[C@@H]2c2nccc(C)n2)nc(OCc2cn3cc(C4CC4)cc(N4CC(=O)N(C)C4=O)c3n2)c1` [Example 38, (1S,2S)-N-(6-((6-cyclopropyl-8-(3-methyl-2,4-dioxoimidazolidin-1-yl)imidazo[1,2-α]pyridin-2-yl)methoxy)-4-methoxypyridin-2-yl)-2-(4-methylpyrimidin-2-yl)cyclopropane-1-carboxamide]: the EC50 lay within 1 to 10 nM.

As to `Cc1ccnc([C@H]2C[C@@H]2C(=O)Nc2cc(OC(C)c3cn4cc(C5CC5)cc(N5CC(=O)NC5=O)c4n3)cnn2)n1` (stereo partly drawn) [Example 39, (1S,2S)—N-(5-(1-(6-cyclopropyl-8-(2,4-dioxoimidazolidin-1-yl)imidazo[1,2-a]pyridin-2-yl)ethoxy)pyridazin-3-yl)-2-(4-methylpyrimidin-2-yl)cyclopropane-1-carboxamide], the EC50 lay within 1 to 10 nM.

For the compound `O=C(Nc1cc(N(CCO)Cc2cn3cc(C4CC4)ccc3n2)ncn1)[C@H]1C[C@@H]1c1cccc(Cl)c1` [Example 77, (1S,2S)-2-(3-chlorophenyl)-N-(6-(((6-cyclopropylimidazo[1,2-a]pyridin-2-yl)methyl)(2-hydroxyethyl)amino)pyrimidin-4-yl)cyclopropane-1-carboxamide], the EC50 lay in the range of 10 to 100 nM.

For `O=C(Nc1cc(NCc2cn3cc(C4CC4)cc(N4CCCS4(=O)=O)c3n2)ccn1)[C@H]1C[C@@H]1c1cccc(Cl)c1` [Example 121], the EC50 was less than 1 nM.

With `O=C(Nc1cc(NCc2cn3cc(C4CC4)cc(N4CC(F)(F)C4)c3n2)ccn1)[C@H]1C[C@@H]1c1cccc(Cl)c1` [Example 124, (1S,2S)-2-(3-chlorophenyl)-N-(4-(((6-cyclopropyl-8-(3,3-difluoroazetidin-1-yl)imidazo[1,2-a]pyridin-2-yl)methyl)amino)pyridin-2-yl)cyclopropane-1-carboxamide], the EC50 lay within 1 to 10 nM.

For the compound `O=C(Nc1cc(NC(c2cn3cc(C4CC4)ccc3n2)C(F)(F)F)ccn1)[C@H]1C[C@@H]1c1cccc(Cl)c1` (some centres unmarked) [Example 141], the EC50 was 100 to 1000 nM.

Turning to `N[C@H]1C[C@H](c2cn3cc(C4CC4)ccc3n2)N(c2cc(NC(=O)[C@H]3C[C@@H]3c3cccc(Cl)c3)ncn2)C1` [Example 297, (1S,2S)—N-(6-((2R,4S)-4-amino-2-(6-cyclopropylimidazo[1,2-a]pyridin-2-yl)pyrrolidin-1-yl)pyrimidin-4-yl)-2-(3-chlorophenyl)cyclopropane-1-carboxamide], the EC50 is 1000 to 6000 nM.

Consider `O=C(O)c1cc(C2CC2)cn2cc(CNc3cc(NC(=O)[C@H]4C[C@@H]4c4cccc(Cl)c4)ncn3)nc12` [Example 298, 2-(((6-((1S,2S)-2-(3-chlorophenyl)cyclopropane-1-carboxamido)pyrimidin-4-yl)amino)methyl)-6-cyclopropylimidazo[1,2-a]pyridine-8-carboxylic acid], for which the EC50 was 1 to 10 nM.

For `NC(=O)c1cc(C2CC2)cn2cc(CNc3cc(NC(=O)[C@H]4C[C@@H]4c4cccc(Cl)c4)ncn3)nc12` [Example 302, 2-(((6-((1S,2S)-2-(3-chlorophenyl)cyclopropane-1-carboxamido)pyrimidin-4-yl)amino)methyl)-6-cyclopropylimidazo[1,2-a]pyridine-8-carboxamide], the EC50 lay in the range of 1 to 10 nM.

Take `CNC(=O)c1cc(C2CC2)cn2cc(CNc3cc(NC(=O)[C@H]4C[C@@H]4c4cccc(Cl)c4)ncn3)nc12` [Example 303, 2-(((6-((1S,2S)-2-(3-chlorophenyl)cyclopropane-1-carboxamido)pyrimidin-4-yl)amino)methyl)-6-cyclopropyl-N-methylimidazo[1,2-a]pyridine-8-carboxamide]: the EC50 was in the range of 1 to 10 nM.
